Measurements from paper PMC6131718 (Journal of medicinal chemistry, 2018).
Converted amounts (≈) assume the structure as drawn. Read-outs that look alike come from different tables or passages of the source. Each block holds one compound with its values, some of them ahead of it.

Columns and labels:
ADC-7 = ADC-7 (Acinetobacter baumannii, UniProt Q6DRA1); test: Steady-state inhibitor kinetics; format: biochemical; conditions: for lower Ki app values compared to those of avibactam and relebactam: ADC-7
OXA-24/40 = OXA-24/40 (Acinetobacter baumannii, UniProt Q8RLA6); test: biochemical; parameters: species or system A. baumannii
OXA-23 = OXA-23 (Acinetobacter baumannii, UniProt Q9L4P2); test: Steady-state inhibitor kinetics; format: biochemical, A. baumannii
[1] = tested on: KPC-2 (donor) and TEM-1 (recipient); test: Acyl-transfer ESI-MS, KPC-2 donor to TEM-1 recipient; format: biochemical; conditions: equimolar KPC-2:DBO preincubated 1 min, then equimolar TEM-1
[2] = tested on: Enterobacteriaceae that expressed blaOXA-48 or blaOXA-48 mutants; format: cell-based; conditions: for MIC: Escherichia coli, E. coli Jefferson 17,75 OXA-48, agent alone
PDC-3 = PDC-3 (Pseudomonas aeruginosa, UniProt P24735, T105A); format: biochemical
A. baumannii SL04 = test: MIC against clinical isolate A. baumannii SL04; format: cell-based
KPC-2 [3] = target: T1, KPC-2 (Klebsiella pneumoniae, UniProt Q9F663); test: biochemical
[4] = tested on: TEM-1 (donor) and CTX-M-15 (recipient); conditions: cited from earlier work
[5] = tested on: Escherichia coli DH10B (control); test: MIC, broth microdilution, Escherichia coli DH10B; format: cell-based
A. baumannii NCTC 13303 = test: MIC against A. baumannii NCTC 13303; format: cell-based
A. baumannii SL46 = test: MIC against A. baumannii SL46; format: cell-based; conditions: Acinetobacter baumannii
[6] = tested on: E. coli DH10B expressing a single β-lactamase; format: cell-based; conditions: Escherichia coli, agent alone
KPC-2 [7] = target: T1, KPC-2; conditions: at 15 min; cited from earlier work
[8] = tested on: A. baumannii ΔblaADC with pWH1266 blaOXA-24/40; format: cell-based; conditions: Acinetobacter baumannii, β-lactam alone; A. baumannii ΔblaADC pWH1266 blaOXA-24
A. baumannii AADC = test: MIC, broth microdilution, A. baumannii ΔblaADC parent strain; format: cell-based; conditions: Acinetobacter baumannii
[9] = tested on: E. coli DH10B with pBR322-catI-blaKPC-2; test: MIC, broth microdilution, isogenic E. coli DH10B with pBR322-catI-blaKPC-2; format: cell-based; conditions: Escherichia coli, β-lactam alone; E. coli DH10B pBR322-catI-blaKPC-2
[10] = tested on: A. baumannii ΔblaADC with pWH1266 blaOXA-23; test: MIC, broth microdilution, isogenic A. baumannii ΔblaADC with pWH1266 blaOXA-23; format: cell-based; conditions: Acinetobacter baumannii, β-lactam alone; A. baumannii ΔblaADC pWH1266 blaOXA-23
A. baumannii NCTC 13301 = test: MIC against A. baumannii NCTC 13301; format: cell-based
CMY-2 = conditions: cited from earlier work
[11] = tested on: A. baumannii strains (NCTC 13301, NCTC 13303, SL46); test: Murine peritonitis model, summary over the three A. baumannii strains; format: in vivo; conditions: supra-therapeutic doses, 6.25 mg/kg administered as two doses
[12] = Acinetobacter baumannii, NCTC13303
[13] = E. coli DH10B pBC SIC (−) KPC-2
[14] = E. coli DHIOB pBC SIC (−) PDC-3
[15] = Acinetobacter baumannii, NCTC13301

Compound: O=C(NNC(=O)[C@@H]1CC[C@@H]2CN1C(=O)N2OS(=O)(=O)O)[C@@H]1CCNC1 [Compound 1, (2S,5R)-6-Sulfooxy-7-oxo-2-[((3R)-pyrrolidine-3-carbonyl)hydrazinocarbonyl]-1,6-diazabicyclo[3.2.1]octane]
lower Ki app values compared to those of avibactam and relebactam (ADC-7): 3–8 fold | Ki (OXA-24/40): > 100 µM | Ki (OXA-23): > 100 µM | time required for transfer from KPC-2 to TEM-1 [1]: 5 min | MIC [2]: > 16 µg/mL | lower Ki app values compared to those of avibactam and relebactam (PDC-3): 18–25 fold

Compound: O=C(NNC(=O)[C@@H]1CC[C@@H]2CN1C(=O)N2OS(=O)(=O)O)[C@@H]1CCCNC1 [Compound 2, (2S,5R)-6-Sulfooxy-7-oxo-2-[((3R)-piperidine-3-carbonyl)hydrazinocarbonyl]-1,6-diazabicyclo[3.2.1]octane]
lower Ki app values compared to those of avibactam and relebactam (ADC-7): 3–8 fold | Ki (OXA-24/40): > 100 µM | Ki (OXA-23): > 100 µM | time required for transfer from KPC-2 to TEM-1 [1]: 5 min | MIC (A. baumannii SL04; Acinetobacter baumannii, SL04): ≥ 512 µg/mL | MIC [2]: > 16 µg/mL | lower Ki app values compared to those of avibactam and relebactam (PDC-3): 18–25 fold

Compound: N#C[C@@H]1CC[C@@H]2CN1C(=O)N2OS(=O)(=O)[O-].[Na+] [Compound 3, (2S,5R)-1,6-Diazabicyclo[3.2.1]octane-2-carbonitrile-7-oxo-6-(sulfooxy)-monosodium Salt]
Kd (ADC-7): 0.053 ± 0.007 µM | Ki (ADC-7): 8 ± 0.8 µM | Kd (OXA-24/40): 0.042 ± 0.006 µM | Ki (OXA-24/40): 5 ± 0.5 µM | Kd (OXA-23): 0.029 ± 0.004 µM | Ki (OXA-23): 8 ± 1 µM | Kd (KPC-2 [3]): 0.0019 ± 0.0002 µM | Ki (KPC-2 [3]): 0.32 ± 0.03 µM | time for transfer from KPC-2 to TEM-1 [1]: ≤ 15 s

Compound: NC(=O)[C@@H]1CC[C@@H]2CN1C(=O)N2OS(=O)(=O)O [avibactam]
time of maximum transfer from TEM-1 to CTX-M-15 [4]: 30 min

Compound: CO/N=C(\C(=O)N[C@@H]1C(=O)N2C(C(=O)[O-])=C(C[N+]3(C)CCCC3)CS[C@H]12)c1csc(N)n1 [cefepime]
MIC [5]: < 0.12 µg/mL | MIC (A. baumannii NCTC 13303; [12]): 64 µg/mL (≈ 133 µM) | MIC (A. baumannii SL46): > 512 µg/mL | MIC [6, 13]: 0.5 µg/mL (≈ 1.04 µM) | MIC ([6]; E. coli DHIOB pBC SIC (−) OXA-48): < 0.12 µg/mL | MIC [6, 14]: < 0.12 µg/mL

Compound: O=C(O)[C@H]1/C(=C/CO)O[C@@H]2CC(=O)N21 [clavulanic acid]
turnover number (tn) (KPC-2 [7]): 2,500

Compound: C[C@@H](O)[C@H]1C(=O)N2C(C(=O)O)=C(S[C@@H]3CN[C@H](C(=O)N(C)C)C3)[C@H](C)[C@H]12 [meropenem]
MIC [8]: ≥ 8 µg/mL | MIC [5]: < 0.12 µg/mL | MIC (A. baumannii AADC): < 0.12 µg/mL | MIC [9]: ≥ 8 µg/mL | MIC (A. baumannii NCTC 13303; [12]): 256 µg/mL (≈ 668 µM) | MIC [6, 13]: < 0.12 µg/mL | MIC [6, 14]: < 0.12 µg/mL | MIC [10]: ≥ 8 µg/mL | MIC (A. baumannii NCTC 13301; [15]): 32 µg/mL (≈ 83.4 µM)

Compound: O.O=C(NC1CCNCC1)[C@@H]1CC[C@@H]2CN1C(=O)N2OS(=O)(=O)O [relebactam]
Ki (OXA-24/40): > 100 µM | Ki (OXA-23): > 100 µM | restoration of susceptibility to cefepime and meropenem ([2]; clinical isolates of Enterobacteriaceae expressing blaOXA-48 or mutants): less effective

Compound: C[C@]1(Cn2ccnn2)[C@H](C(=O)O)N2C(=O)C[C@H]2S1(=O)=O [tazobactam]
Ki (CMY-2): 40 µM

MIC (A. baumannii NCTC 13303; [12]): 1 µg/mL (≈ 1.71 µM) | MIC (A. baumannii NCTC 13301; [15]): 1 µg/mL (≈ 1.71 µM)
Compound: CN(C)c1cc(NC(=O)CNC(C)(C)C)c(O)c2c1C[C@H]1C[C@H]3[C@H](N(C)C)C(O)=C(C(N)=O)C(=O)[C@@]3(O)C(O)=C1C2=O [tigecycline]
protection of infected mice [11]: failed to protect infected mice

Compound: colistin
MIC (A. baumannii NCTC 13303; A. baumannii NCTC 13303, 3 at a fixed 8 μg/mL, cefepime-2 at 1:1 ratio): 0.5 µg/mL | MIC (A. baumannii SL04; A. baumannii SL04 carrying blaOXA-23 and blaOXA-51): 2 µg/mL | MIC (A. baumannii NCTC 13301; A. baumannii NCTC 13301, 3 at a fixed 8 μg/mL, cefepime-2 at 1:1 ratio): 1 µg/mL
